Data set [1] concerns CHIKV. To be noted: cited from earlier work.
Data set [2] has as its system CHIKV. The conditions noted are these: read-out: EC50 against CHIKV; cited from earlier work.
Another data set concerns CHIKV 181-25 strain. Kind of data set: Antiviral screening against CHIKV 181-25 replication in Vero cells (plaque assay). Format: cell-based, Chikungunya virus. The conditions noted are these: inhibition rate of CHIKV replication at 50 μM, % relative to control, 24 hpi; for inhibition at 50 µM: Chikungunya virus; for CHIKV 181-25 inhibition (%): 50 µM. The procedure:
DMSO (0.5%) was used as vehicle control, while CQ (50 μM) was used as a positive control due to its in vitro antiviral activity against CHIKV.[57]
Finally, the overlay medium was removed, and cells were fixed and stained with 10% formaldehyde and 0.2% crystal violet. Plaques were counted, and virus titers were determined as PFU/mL. Inhibition rates were determined by comparing the number of PFU of infected and treated cells and infected and untreated cells (100% infectivity).

For data set [3], the system named is CHIKV BRA/RJ/18. Kind of data set: Antiviral evaluation against CHIKV BRA/RJ/18 replication in Vero cells (plaque assay). Format: cell-based, Chikungunya virus. The conditions noted are these: for EC50 / inhibition at 50 µM: Chikungunya virus, Vero; for EC50: 24 h, read-out: CHIKV BRA/RJ/18 EC50; for CHIKV BRA/RJ/18 EC50: Vero cells, MOI 1, 24 h; for inhibition at 50 µM: read-out: CHIKV BRA/RJ/18 inhibition (%); for CHIKV BRA/RJ/18 SI (selectivity index): ratio between CC50 and EC50 values.

The nature of data set [4]: Cytotoxicity by MTT assay in Vero cells. The conditions noted are these: African green monkey. A general note: Tetrazolium assays rely on reduction of a dye to a coloured formazan, in cell work by metabolically active cells.
In a further data set the test system is mice. To be noted: doses up to 10 g/kg; cited from earlier work.
Data set [5] relates to CHIKV BRA/RJ/18. Kind of data set: Entry assay. The conditions noted are these: Chikungunya virus, read-out: inhibition rate in virus entry assay.
Another data set relates to Zika virus. The conditions noted are these: read-out: EC50 against Zika virus; cited from earlier work.
In data set [6] the test system is CHIKV BRA/RJ/18. Kind of data set: Virus release assay. The conditions noted are these: 50 μM, 6 hpi.
Data set [7] deals with CHIKV BRA/RJ/18. The data set can be described thus: Time-of-drug addition assay. To be noted: Chikungunya virus. Format: cell-based.
The next data set has as its system rats. To be noted: doses up to 10 g/kg; cited from earlier work.
Another data set has as its system human herpesvirus 8. The conditions noted are these: read-out: EC50 against human herpesvirus 8; cited from earlier work.
For data set [8] the following is noted: single oral dose of 400 mg; cited from earlier work.
Data set [9] deals with CHIKV BRA/RJ/18. The data set can be described thus: Attachment assay. To be noted: Chikungunya virus, read-out: inhibition rate in attachment assay.
Data set [10] relates to CHIKV BRA/RJ/18. Kind of data set: Virucidal assay. In kind it is cell-based, Chikungunya virus. The conditions noted are these: 50 μM, 2 × 10^5 PFU treated 2 h at 37 °C.

The values below come from PMC11209700, “In Silico Drug Repurposing Uncovered the Antiviral Potential of the Antiparasitic Drug Oxibendazole Against the Chikungunya Virus” (ACS Omega, 2024).

As usually defined, the CC50 is the concentration at which the toxic effect on the cells reaches its halfway point.

Starred links: 1 amine or outer side, 2 acyl side, 3 side chain; linkers in the order of their positions; H or OH if unused. Positions of bridges follow the written chain, without caps; N, C: chain ends. Non-standard residues stand in square brackets, D forms with d. Residues, ends and D or L forms follow the SMILES beside them. *: point of attachment. hTyr(3S-OH,4S-OH,3'-OSO3H) = N[C@H](C(=O)O)[C@H](O)[C@@H](O)c1ccc(O)c(OS(=O)(=O)O)c1; Orn(4R-OH,5R-OH) = O=C([C@H](C[C@@H](O)[C@@H](O)N[*:3])N[*:1])[*:2]; Pro(3S-OH,4S-Me) = C[C@H]1CN[C@H](C(=O)O)[C@H]1O; X1 = CCCCCOc1ccc(-c2cc(-c3ccc(C(=O)*)cc3)no2)cc1; Gln(3R-OH) = NC(=O)C[C@@H](O)[C@H](N)C(=O)O; Hyp = O=C(O)[C@@H]1C[C@@H](O)CN1

Take `Cc1ccc(C(=O)Nc2ccc(S(=O)(=O)O)c3cc(S(=O)(=O)O)cc(S(=O)(=O)O)c23)cc1NC(=O)c1cccc(NC(=O)Nc2cccc(C(=O)Nc3cc(C(=O)Nc4ccc(S(=O)(=O)O)c5cc(S(=O)(=O)O)cc(S(=O)(=O)O)c45)ccc3C)c2)c1` [suramin]: the “effect on CHIKV infection in mice” value in the data set on CHIKV [1] was “ameliorate CHIKV infection in mice”. For the same molecule, the EC50 in the data set on CHIKV [2] is 21.5 µM.

For `CCCCCOC(=O)Nc1nc(=O)n([C@@H]2O[C@H](C)[C@@H](O)[C@H]2O)cc1F` [CPB, capecitabine], in the data set on CHIKV 181-25 strain, the inhibition at 50 µM stood at 0% and the “CHIKV 181-25 inhibition (%)” value was “did not present antiviral activity”. The “CHIKV 181-25 inhibition (%)” value with CHIKV 181-25 strain (listed as CPD) is “did not inhibit CHIKV replication”.

`COC(=O)Nc1nc2ccc(Sc3ccccc3)cc2[nH]1` [FBZ, fenbendazole]: in the data set with CHIKV BRA/RJ/18 [3], the EC50 is over 50 µM and the “CHIKV BRA/RJ/18 EC50” value is “none exhibited anti-CHIKV activity”. The CC50 at 72 h in [4] was over 500 µM.

In the case of `CC(C)OC(=O)[C@H](C)N[P@](=O)(OC[C@H]1O[C@@H](n2ccc(=O)[nH]c2=O)[C@](C)(F)[C@@H]1O)Oc1ccccc1` [sofosbuvir], the “effect on CHIKV infection in mice” value in the data set on CHIKV [1] is “ameliorate CHIKV infection in mice”. For the same molecule, in the data set with CHIKV [2], the EC50 is 2.7 µM.

For `CCCCCCCCCCC[C@@H](C[C@@H]1OC(=O)[C@H]1CCCCCC)OC(=O)[C@H](CC(C)C)NC=O` [orlistat], the EC50 with CHIKV [2] is 0.82 µM.

For `CCCOc1ccc2nc(NC(=O)OC)[nH]c2c1` [OBZ, oxibendazole], the “lethality (LD50 not determinable)” value with mice and in the data set on rats was “no deaths were reported” in each case. For the same molecule, the inhibition at 50 µM with CHIKV BRA/RJ/18 [5] is 33.8%; in the data set with CHIKV 181-25 strain, 66.4 ± 2.5%; with CHIKV BRA/RJ/18 [7] (read-out: inhibition rate in time-of-addition assay, 50 μM, added after 4 hpi until 10 hpi), about 40%; in the data set with CHIKV BRA/RJ/18 [7] (read-out: inhibition rate in time-of-addition assay, 50 μM, added until 4 hpi) it was about 55%; in the data set with CHIKV BRA/RJ/18 [3], 61.8 ± 2.7%; in the data set with CHIKV BRA/RJ/18 [9], 13.1%. For the same molecule, the EC50 in the data set on Zika virus is 0.7 µM; with human herpesvirus 8, 1.5 µM; in the data set on CHIKV BRA/RJ/18 [3] it was 11.4 ± 3.2 µM. The “intracellular/extracellular ratio of virus titers” value in the data set with CHIKV BRA/RJ/18 [6] is listed as 3.78. In [8], the “side effects in clinical trials” value is “low frequency of side effects”. Besides, in the data set with CHIKV BRA/RJ/18 [3], the “CHIKV BRA/RJ/18 SI (selectivity index)” value is on record as over 44.0. Also, the virucidal effect entry in the data set with CHIKV BRA/RJ/18 [10] is on record as “no virucidal effects were observed”. The CC50 at 72 h in [4] is over 500 µM.

In the case of `CCCc1nc2c(C)cc(-c3nc4ccccc4n3C)cc2n1Cc1ccc(-c2ccccc2C(=O)O)cc1` [telmisartan], the “effect on CHIKV infection in mice” value in the data set with CHIKV [1] is recorded as “ameliorate CHIKV infection in mice”. For the same molecule, the EC50 in the data set with CHIKV [2] was 15.3 µM.

For `CC(=O)Oc1ccccc1C(=O)Nc1ncc([N+](=O)[O-])s1` [nitazoxanide], in the data set with CHIKV [2], the EC50 was 2.96 µM.

As for `CCCSc1ccc2nc(NC(=O)OC)[nH]c2c1` [ABZ, albendazole], in the data set with CHIKV BRA/RJ/18 [3], the EC50 is over 50 µM and the “CHIKV BRA/RJ/18 EC50” value is recorded as “none exhibited anti-CHIKV activity”. Also, the CC50 at 72 h in data set [4] was over 500 µM.

The molecule `CCN(CC)CCCC(C)Nc1ccnc2cc(Cl)ccc12` (stereo not drawn) [CQ, chloroquine] returned an inhibition at 50 µM in the data set on CHIKV 181-25 strain of 98.2 ± 0.2%. In the data set on CHIKV BRA/RJ/18 [3], the EC50 was found to be 47.5 ± 10.2 µM, the inhibition at 50 µM is 48.5 ± 11.7% and the “CHIKV BRA/RJ/18 SI (selectivity index)” value is recorded as 9.9. Moreover, it took 469 ± 84.4 µM to reach half-maximal cytotoxicity in data set [4] (CC50 at 72 h).

As for `COC(=O)Nc1nc2ccc(C(=O)c3ccccc3)cc2[nH]1` [MBZ, mebendazole], in the data set with CHIKV BRA/RJ/18 [3], the EC50 was over 50 µM and the “CHIKV BRA/RJ/18 EC50” value is “none exhibited anti-CHIKV activity”. In data set [4], the CC50 at 72 h was over 500 µM.

Turning to `CCCCCOc1ccc(-c2cc(-c3ccc(C(=O)N[C@H]4C[C@@H](O)[C@@H](O)NC(=O)[C@@H]5[C@@H](O)[C@@H](C)CN5C(=O)[C@H]([C@H](O)CC(N)=O)NC(=O)[C@H]([C@H](O)[C@@H](O)c5ccc(O)c(OS(=O)(=O)O)c5)NC(=O)[C@@H]5C[C@@H](O)CN5C(=O)[C@H]([C@@H](C)O)NC4=O)cc3)no2)cc1` [micafungin] (X1-[Orn(4R-OH,5R-OH)]T[Hyp][hTyr(3S-OH,4S-OH,3'-OSO3H)][Gln(3R-OH)][Pro(3S-OH,4S-Me)]; lactam 1-C), the EC50 in the data set on CHIKV [2] is 20.6 µM.
